Columns and labels:
[1] = target: T1, mTORC2 (Homo sapiens, UniProt P42345); experiment: mTORC2 inhibitory activity in HeLa cells (Akt Ser473 phosphorylation, Western blot); assay type: cell-based; conditions: for selective inhibition of mTORC2: 40 μM, versus mTORC1; for selective inhibition of mTORC2 / remaining activity at 40 µM: 9 hours; for remaining activity at 40 µM: read-out: pSer473-AKT/AKT (% control)
T1 construct: the following experiments were conducted in HeLa cells; endogenous in cells; host or cells: HeLa
Summary of the method: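 HeLa cells treated with compounds at 40 μM for 9 hours, then lysed and analysed by Western blot with chemiluminescent detection. Phospho-Akt Ser473 signal normalised to total Akt and expressed as percent of DMSO vehicle control.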

[2] = target: T2, mTORC1 (Homo sapiens, UniProt P42345); experiment: mTORC1 inhibitory activity in HeLa cells (p70S6K Thr389 phosphorylation, Western blot); assay type: cell-based; conditions: 9 hours; for remaining activity at 40 µM: read-out: pThr389-S6K/S6K (% control)
T2 construct: the following experiments were conducted in HeLa cells; endogenous in cells; host or cells: HeLa
Summary of the method: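 HeLa cells treated with compounds at 40 μM for 9 hours, lysed in RIPA, and equal protein analysed by Western blot. Phospho-p70S6K (Thr389) signal normalized to total p70S6K and expressed as percent of DMSO vehicle control.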

[3] = system: LC3-II; experiment: LC3-II formation as indicator of autophagy in HeLa cells (Western blot); assay type: cell-based, human; conditions: 9 hours; for activity at 40 µM: Homo sapiens, read-out: LC3-II (% control)
Summary of the method: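 HeLa cells were treated with compounds at 40 μM for 9 h, then lysed in RIPA buffer and analysed by Western blot with chemiluminescent detection. LC3-II signal normalized to pan-Akt and expressed as percent of the DMSO vehicle control.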

[4] = system: 5×FAD Alzheimer's disease model mice; experiment: Y-maze test in 5×FAD mice (short-term memory); assay type: in vivo
Protocol: (§1) In order to evaluate the efficacy of HN2210, HN2213, and HN2313 on Alzheimer's disease-related symptoms, specifically regarding 1) memory and cognitive impairment, 2) amyloid plaques, 3) neurofibrillary tangles (NFTs), and 4) brain inflammation, an in vivo efficacy assessment of HN2210, HN2213 and HN2313 was conducted using 5×FAD Alzheimer's disease model mice. The 5×FAD mice were purchased from Jackson Lab, USA (Cat #034840-JAX) and crossed once with C57bl6 mice to produce F1 heterozygous offspring (Het). The compound was administered via intraperitoneal injection to 6-month-old 5×FAD Het mice, followed by behavioral testing. The normal control mice, which were littermates of the 5×FAD Het mice, were aged to 6 months and received DMSO injection at the same volume.
Specifically, the Y-maze test was performed using a Y-shaped structure maze made of black acrylic with each arm at a […], and light and a camera were installed on the ceiling, and we measured the number of entries for white mice to freely enter each arm while the surroundings were covered with a curtain. This procedure was used to analyze short-term memory. In order to adapt mice to the environment, they were acclimated to the experimental space for 30 minutes. The mice were placed at one end of the maze and allowed to move freely for 12 minutes. The test was conducted with observation periods divided into 8, 10, and 12 minutes. When all four paws of a mice entered an arm, it was considered as fully entered, and the number of entries into each arm without repetition was recorded. The number of entries into each of the three different arms was divided by the total number of entries into all arms minus 2, and expressed as a percentage.

[5] = system: amyloid plaques in the brain of 5×FAD mouse; experiment: Amyloid plaque removal in the brain of 5×FAD mice (6E10 antibody, thioflavin-S staining); assay type: in vivo; conditions: 5 mg/kg, 14 days
Protocol: as §1
In order to assess the amyloid plaque removal effect of HN2210, HN2213, and HN2313 compounds in the brains of Alzheimer's disease model mice, the following test was conducted using 5×FAD-DMSO mice without compound treatment, 5×FAD mice treated with HN2210, HN2213, or HN2313 compounds, and normal mice as controls.
Specifically, brain slices sectioned in the coronal plane were selected for every fifth slice from the anterior to the posterior parts of the brain and stained with the 6E10 antibody or thioflavin-S. The 6E10 antibody stains both […] and amyloid plaques, while thioflavin-S specifically stains amyloid plaques. DNA was co-stained with DAPI. The dentate gyrus (DG) region of the hippocampus, where amyloid plaques tend to accumulate heavily, was examined using a confocal scanning microscope, and the images are shown in FIGS. 9a to 9c.

[6] = 5 mg/kg, intraperitoneal, once daily, 14 days (FIG. 5)

O=C1c2cc(F)c(N3CCOCC3)cc2COc2cc3c(cc21)OCO3 [HN2210, 8-(morpholino)-9-fluoro[2]benzoxepino[3,4-f]-1,3-benzodioxol-11(6H)-one]
selective inhibition of mTORC2 [1]: selectively inhibit mTORC2 | remaining activity at 40 µM [1]: 43% | effect on S6K Thr389 phosphorylation ([2]; 40 μM): no effect | remaining activity at 40 µM [2]: 107% | increase in LC3-II ([3]; 40 μM): 22% | activity at 40 µM [3]: 108% | Y-maze % alternation, % of the normal control level ([4]; 0.2 mg/kg, 14 days (FIG. 8a)): approximately 85% | Y-maze % alternation, increase compared to 5×FAD-DMSO mice ([4]; 0.2 mg/kg, 14 days (FIG. 8a)): 1.21 fold | Y-maze % alternation, % of the normal control level ([4]; 1 mg/kg, 14 days (FIG. 8a)): ~82% | Y-maze % alternation, increase compared to 5×FAD-DMSO mice ([4]; 1 mg/kg, 14 days (FIG. 8a)): 1.17 fold | Y-maze % alternation, % of the normal control level ([4]; 5 mg/kg, 14 days (FIG. 8a)): ~93% | Y-maze % alternation, increase compared to 5×FAD-DMSO mice ([4]; 5 mg/kg, 14 days (FIG. 8a)): 1.32 fold | Y-maze % alternation, % of the normal control level [4, 6]: 93% | Y-maze % alternation, increase compared to 5×FAD-DMSO mice [4, 6]: 1.25 fold | reduction of 6E10 signals in the dentate gyrus compared to the 5×FAD-DMSO group [5]: 53% | reduction of thioflavin-S signals in the dentate gyrus compared to the 5×FAD-DMSO group [5]: 38%

O=C1c2cc(F)c(NCc3ccccc3)cc2COc2cc3c(cc21)OCO3 [HN2213, 8-(benzylamino)-9-fluoro[2]benzoxepino[3,4-f]-1,3-benzodioxol-11(6H)-one]
selective inhibition of mTORC2 [1]: selectively inhibit mTORC2 | remaining activity at 40 µM [1]: 51% | increase in S6K Thr389 phosphorylation ([2]; 40 μM): 14% | remaining activity at 40 µM [2]: 114% | decrease in LC3-II ([3]; 40 μM): 33% | activity at 40 µM [3]: 67% | Y-maze % alternation, % of the normal control level [4, 6]: 97% | Y-maze % alternation, increase compared to 5×FAD-DMSO mice [4, 6]: 1.3 fold | reduction of 6E10 signals in the dentate gyrus compared to the 5×FAD-DMSO group [5]: 29% | reduction of thioflavin-S signals in the dentate gyrus compared to the 5×FAD-DMSO group [5]: 28%

O=C1c2cc(F)c(NC3CCCC3)cc2COc2cc3c(cc21)OCO3 [HN2313, 8-(cyclopentylamino)-9-fluoro-[1,3]dioxolo[4′,5′:4,5]benzo[1,2-b]benzo[e]oxepin-11(6H)-one]
remaining activity at 40 µM [1]: 80% | inhibition at 40 µM ([1]; HeLa, 9 h, read-out: reduction in Akt Ser473 phosphorylation compared to the control group): > 20% | remaining activity at 40 µM [2]: 54% | increase in LC3-II ([3]; 40 μM): 62% | activity at 40 µM [3]: 162% | Y-maze % alternation, % of the normal control level [4, 6]: 90% | Y-maze % alternation, increase compared to 5×FAD-DMSO mice [4, 6]: 1.2 fold | reduction of 6E10 signals in the dentate gyrus compared to the 5×FAD-DMSO group [5]: 38% | reduction of thioflavin-S signals in the dentate gyrus compared to the 5×FAD-DMSO group [5]: 35%

— patent US20260265267A1, “NOVEL COMPOUNDS WITH MTORC2-INHIBITORY ACTIVITY AND USES THEREOF” (Aliad Biopharma, priority 2023, published 2026)
